The values below come from US9487489B2, “Halogen-substituted pyrazole derivatives as pest-control agents” (BAYER CROPSCIENCE AKTIENGESELLSCHAFT, priority 2013, dated 2016).

In data set [1] the test system is adult houseflies (Musca domestica). Put plainly: Musca domestica test (MUSCDO). To be noted: application rate 100 ppm; after 2 days. The format is in vivo. In short, it runs like this: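 Groups of 10 adult Musca domestica exposed to a sugar-soaked sponge treated with the water-diluted DMSO preparation of compound at the chosen concentration. Percent kill read at day 2, where 0% means no flies killed and 100% all killed.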

Data set [2] relates to L1 larvae of the Australian sheep blowfly (Lucilia cuprina). Put plainly: Lucilia cuprina test (LUCICU). The class given is in vivo. Particulars: application rate 100 ppm; after 2 days. In short, it runs like this:
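Percent mortality read at 2 days; 100% = all larvae killed, 0% = none. Test compound, predissolved in DMSO and water-diluted to the wanted level, was mixed into minced horsemeat holding roughly 20 first-instar larvae.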

Data set [3] has as its system caterpillars of the armyworm (Spodoptera frugiperda). The data set is described as follows: Spodoptera frugiperda spray test (SPODFR). The format is in vivo. Particulars: maize leaf discs, after 7 days. In outline:
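Percent kill read at day 7 on caterpillar-infested maize leaf discs. Discs were first sprayed with aqueous emulsifier-containing (1000 ppm) preparations made from acetone/dimethylformamide solutions, and dried. Scale: 0% none dead, 100% all dead.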

Data set [4] concerns adult dog ticks (Rhipicephalus sanguineus). Put plainly: Rhipicephalus sanguineus in vitro contact test with adult brown dog ticks (T2). Particulars: after 48 h. In outline:
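Acetone solutions coated onto test tube walls and floor, giving 5 μg/cm^2 at 900 ppm. Five to ten adult ticks held per tube in the dark at room temperature for 48 h, then heated at 45-50° C for up to 5 min; efficacy is the percentage of dead or moribund ticks unable to climb away.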

Data set [5] concerns engorged adult female cattle ticks (Boophilus microplus). The data set is described as follows: Boophilus microplus injection test (BOOPMI Inj). The format is in vivo. Particulars: application rate 20 μg/animal; injection into abdomen; assessed after 7 days. In short, it runs like this:
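Efficacy is read at 7 days as fertile egg laying (100% = no fertile eggs laid; 0% = all eggs fertile), with eggs of unclear fertility stored until larvae hatch at about 42 days. Five engorged adult females per dose each receive an abdominal injection of 1 μl compound dissolved in DMSO.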

In data set [6] the test system is larvae of the mustard beetle (Phaedon cochleariae). The data set is described as follows: Phaedon cochleariae spray test (PHAECO). The format is in vivo. Particulars: Chinese cabbage leaf discs, after 7 days. In outline: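 Kill of mustard beetle larvae is read as % mortality 7 days after spraying. Spray liquid: active compound in acetone plus dimethylformamide, brought up with water holding 1000 ppm alkylaryl polyglycol ether emulsifier and diluted further in emulsifier-water.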

The subject of data set [7] is adult cat fleas (Ctenocephalides felis). Put plainly: Ctenocephalides felis oral test (CTECFE). The format is in vivo. To be noted: application rate 100 ppm in citrated cattle blood; after 2 days. In outline: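 Mortality read at 2 days as percent of fleas killed. Compound predissolved in DMSO, diluted into citrated cattle blood and offered to roughly 20 unfed adult C. felis via parafilm membrane feeder.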

The test system of data set [8] is bont tick nymphs (Amblyomma hebraeum). To be noted: after 48 h.
In data set [9] the test system is adult cat fleas (Ctenocephalides felis). Put plainly: Ctenocephalides felis in vitro contact test with adult cat fleas (T1). To be noted: after 48 h. In outline: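 Adult cat fleas (Ctenocephalides felis), 5-10 per tube, were exposed to the inner surface of 25 ml test tubes coated with compound in acetone. Tubes were incubated lying flat under ambient conditions. Efficacy was then read by standing tubes upright and knocking the fleas to the floor. Fleas that stayed motionless or moved uncoordinatedly counted as dead or moribund, where 100% means all fleas dead or moribund and 0% means none harmed.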

For data set [10], the system named is adult castor bean ticks (Ixodes ricinus). Put plainly: Ixodes ricinus in vitro contact test with adult castor bean ticks (T3). To be noted: after 48 h. How it is done:
T3. Ixodes ricinus-in vitro Contact Tests with Adult Castor Bean Ticks
For the coating of the test tubes, initially 9 mg of active compound are dissolved in 1 ml of acetone p.a. and then diluted with acetone p.a. to the desired concentration. By turning and rocking on an orbital shaker (2 h of rocking rotation at 30 rpm), 250 μl of the solution are distributed homogeneously on the internal walls and the floor of a 25 ml test tube. At 900 ppm active compound solution and 44.7 cm^2 internal surface, an area dose of 5 μg/cm^2 is achieved for homogeneous distribution.
After evaporation of the solvent, the tubes are populated with 5-10 adult castor bean ticks (Ixodes ricinus), sealed with a perforated plastic lid and incubated in a horizontal position in the dark at 22° C. and 90% humidity in a climate-controlled cabinet. After 48 h, the efficacy is determined. To this end, the ticks are knocked to the floor of the tube and incubated on a hotplate at 45-50° C. for at most 5 min. Ticks which remain motionless on the floor or move in an uncoordinated manner such that they are not able to deliberately avoid the heat by climbing upwards are considered to be dead or moribund.
An efficacy of 100% means that all ticks were dead or moribund. 0% efficacy means that none of the ticks had been damaged.

Data set [11] can be described thus: logP determination by HPLC on a reversed-phase column (C18), EEC Directive 79/831 Annex V.A8. The format is physicochemical. In outline:
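Per EEC 79/831 Annex V.A8, values derive from HPLC retention at 2.0 ml/min and 55° C on a 50*4.6 C18 column. The 10→95% acetonitrile gradient (0.1%/0.09% formic acid) lasted 4.25 min plus a 1.25 min hold; mass detection was by MSD.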

The subject of data set [12] is green peach aphid (Myzus persicae). Put plainly: Myzus persicae spray test (MYZUPE). The class given is in vivo. To be noted: Chinese cabbage leaf discs, after 6 days. In outline:
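Chinese cabbage leaf discs infested with all aphid stages sprayed with compound in acetone/DMF with alkylaryl polyglycol ether emulsifier in water. Efficacy (% aphids killed; 100% all dead, 0% none) scored after 6 days.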

For data set [13], the system named is greenhouse red spider mite (Tetranychus urticae). The data set is described as follows: Tetranychus urticae spray test, OP-resistant (TETRUR). The class given is in vivo. Particulars: bean leaf discs, after 6 days. In outline: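 Percent kill, scored 6 days post-spray (0% = none dead, 100% = all dead), on Phaseolus vulgaris leaf discs infested with every life stage of the OP-resistant spider mite. Compound dissolved in acetone plus DMF, diluted to test concentration with emulsifier-containing water (1000 ppm).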

For data set [14], the system named is cattle ticks (Boophilus microplus) Parkhurst strain, SP-resistant. The data set is described as follows: Boophilus microplus dip test (BOOPMI Dip). The format is in vivo. To be noted: application rate 100 ppm, assessed after 7 days. In outline:
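Adult engorged female SP-resistant Parkhurst ticks (8–10) were fully immersed in compound diluted in water from a DMSO solution, then kept in a climate-controlled room. After 7 days, fertile egg-laying was scored, with larval hatching checked at about 42 days; 100% efficacy means no fertile eggs.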

By logP is commonly meant a log measure of how a compound divides between an organic and an aqueous phase. Low values mean lower lipophilicity, high ones higher lipophilicity. Take `Cn1nc(C(F)(F)C(F)(F)F)c(C(F)(F)F)c1-n1cc(-c2cccc(C(=O)NC3CC3)c2)cn1` [Ic-18]: the “efficacy (kill in %)” value in [1], in data set [2] and in data set [7] was 100% each time. In addition, the efficacy in % in data set [3] (application rate 100 g/ha) and in data set [6] (application rate 100 g/ha) was 100% each time. Further, the “efficacy (dead or moribund ticks)” value in data set [4] (application rate 1 μg/cm^2) is on record as 100%; in data set [4] (application rate 5 μg/cm^2) it was 100%; in data set [8] it was 100%; in data set [10] (application rate 5 μg/cm^2), 80%. Besides, the “efficacy (laying of fertile eggs)” value in [5] is 100%. In addition, the “efficacy (dead or moribund fleas)” value in [9] (application rate 1 μg/cm^2) and in data set [9] (application rate 5 μg/cm^2) was 100% throughout. This compound showed a lipophilicity (logP) in [11] (HPLC on reversed-phase column (C18), acetonitrile/water with formic acid, EEC Directive 79/831 Annex V.A8) of 3.66.

`COc1ncc(-c2cnn(-c3c(C(F)(F)F)c(C(F)(F)C(F)(F)F)nn3C)c2)cc1C(=O)NC1(C#N)CC1` [Ic-87]: the “efficacy (kill in %)” value in [1], in [2] and in data set [7] was 100% throughout. Further, the efficacy in % in data set [12] (application rate 100 g/ha) is on record as 90%; in data set [3] (application rate 500 g/ha), 100%; in data set [6] (application rate 500 g/ha) it was 100%; in data set [13] (application rate 500 g/ha) it was 100%. For the same compound, the “efficacy (dead or moribund ticks)” value in data set [4] (application rate 1 μg/cm^2) was 100%; in [4] (application rate 5 μg/cm^2), 100%; in data set [8], 100%; in [10] (application rate 1 μg/cm^2), 80%; in data set [10] (application rate 5 μg/cm^2), 100%. In addition, the “efficacy (laying of fertile eggs)” value in data set [5] amounted to 100%. Further, the “efficacy (dead or moribund fleas)” value in [9] (application rate 1 μg/cm^2) and in [9] (application rate 5 μg/cm^2) was 100% each time.

With `Cn1nc(C(F)(F)C(F)(F)F)c(C(F)(F)F)c1-n1cc(-c2cc(C(=O)NC3(C#N)CC3)c(F)cc2Cl)cn1` [Ic-48], the “efficacy (laying of fertile eggs)” value in [14] was found to be 80%; in [5] it was 100%. In addition, the “efficacy (kill in %)” value in data set [1], in [2] and in [7] was 100% in each case. In addition, the efficacy in % is 90% in data set [12] (application rate 100 g/ha), 100% in data set [3] (application rate 500 g/ha), 100% in [6] (application rate 500 g/ha) and 90% in data set [13] (application rate 100 g/ha). For the same compound, the “efficacy (dead or moribund ticks)” value amounted to 100% in data set [4] (application rate 1 μg/cm^2); 100% in data set [4] (application rate 5 μg/cm^2); 100% in [8]; 80% in [10] (application rate 1 μg/cm^2); 100% in [10] (application rate 5 μg/cm^2). In addition, the “efficacy (dead or moribund fleas)” value in [9] (application rate 1 μg/cm^2) and in data set [9] (application rate 5 μg/cm^2) was 100% in each case.

As for `COc1ncc(-c2cnn(-c3c(C(F)(F)F)c(C(F)(F)C(F)(F)F)nn3C)c2)cc1C(=O)NC1CC1` [Ic-86], the “efficacy (laying of fertile eggs)” value in data set [14] and in [5] was 100% each time. The “efficacy (kill in %)” value in data set [1], in [2] and in [7] was 100% in each case. Besides, the efficacy in % in data set [12] (application rate 500 g/ha), in data set [3] (application rate 500 g/ha), in data set [6] (application rate 500 g/ha) and in [13] (application rate 500 g/ha) was 100% each time. The “efficacy (dead or moribund ticks)” value is 100% in data set [4] (application rate 1 μg/cm^2); 100% in data set [4] (application rate 5 μg/cm^2); 100% in data set [8]; 80% in [10] (application rate 1 μg/cm^2); 100% in data set [10] (application rate 5 μg/cm^2). Further, the “efficacy (dead or moribund fleas)” value in data set [9] (application rate 1 μg/cm^2) and in data set [9] (application rate 5 μg/cm^2) was 100% throughout.

Take `Cn1nc(C(F)(F)C(F)(F)F)c(C(F)(F)F)c1-n1cnc(-c2ccc(Cl)c(C(=O)NC3(C#N)CC3)c2)c1` [Ib-2]: the “efficacy (laying of fertile eggs)” value in data set [14] and in [5] was 100% in each case. Further, the “efficacy (kill in %)” value in data set [1], in [2] and in data set [7] was 100% throughout. Further, the efficacy in % came out at 90% in [12] (application rate 100 g/ha), 100% in [3] (application rate 100 g/ha), 100% in data set [6] (application rate 100 g/ha) and 100% in [13] (application rate 100 g/ha). The “efficacy (dead or moribund ticks)” value in data set [8] was 100%. Besides, the “efficacy (dead or moribund fleas)” value in data set [9] (application rate 1 μg/cm^2) and in data set [9] (application rate 5 μg/cm^2) was 100% in each case. In data set [11] (HPLC, reversed-phase C18, acetonitrile (0.1% formic acid)/water (0.09% formic acid) gradient), the lipophilicity (logP) is given as 3.38.

With `Cc1cc(-c2cnn(-c3c(C(F)(F)F)c(C(F)(F)C(F)(F)F)nn3C)c2)cc(C(=O)NC2CC2)c1Cl` [Ic-90], the “efficacy (laying of fertile eggs)” value in [14] and in data set [5] was 100% each time. For the same compound, the “efficacy (kill in %)” value in [1], in [2] and in [7] was 100% throughout. The efficacy in % in [12] (application rate 500 g/ha) stood at 100%; in [3] (application rate 500 g/ha) it was 100%; in [6] (application rate 500 g/ha) it was 100%; in [13] (application rate 500 g/ha), 90%. Besides, the “efficacy (dead or moribund ticks)” value in data set [4] (application rate 1 μg/cm^2), in data set [4] (application rate 5 μg/cm^2), in data set [8], in data set [10] (application rate 1 μg/cm^2) and in data set [10] (application rate 5 μg/cm^2) was 100% throughout. In addition, the “efficacy (dead or moribund fleas)” value in data set [9] (application rate 1 μg/cm^2) and in data set [9] (application rate 5 μg/cm^2) was 100% throughout.
